Experiment: xn = mol fraction of the nth substance listed
Conditions: Liquid, Vibrating tube method

CC(C)(C)Cl [2-chloro-2-methylpropane] + CCCCCCC
mass density [kg/m3]
Conditions	303.15 K	313.15 K	323.15 K
100 kPa, x2 = 0.0554	818.78	806.66	794.33
100 kPa, x2 = 0.1017	809.14	797.28	785.21
100 kPa, x2 = 0.2004	789.72	778.36	766.79
100 kPa, x2 = 0.3016	771.27	760.35	749.26
100 kPa, x2 = 0.4097	753.07	742.58	731.93
100 kPa, x2 = 0.498	739.29	729.11	718.79
100 kPa, x2 = 0.5983	724.71	714.88	704.9
100 kPa, x2 = 0.7017	710.79	701.3	691.67
100 kPa, x2 = 0.7995	698.55	689.36	680.04
100 kPa, x2 = 0.9032	686.4	677.52	668.52
100 kPa, x2 = 0.9482	681.35	672.6	663.72
2000 kPa, x2 = 0.0554	821.47	809.52	797.48
2000 kPa, x2 = 0.1017	811.82	800.05	788.27
2000 kPa, x2 = 0.2004	792.22	781	769.77
2000 kPa, x2 = 0.3016	773.66	763.03	752.1
2000 kPa, x2 = 0.4097	755.51	745.07	734.59
2000 kPa, x2 = 0.498	741.69	731.68	721.4
2000 kPa, x2 = 0.5983	727.08	717.4	707.53
2000 kPa, x2 = 0.7017	713.01	703.64	694.11
2000 kPa, x2 = 0.7995	700.74	691.69	682.44
2000 kPa, x2 = 0.9032	688.51	679.76	670.78
2000 kPa, x2 = 0.9482	683.42	674.8	665.93
5000 kPa, x2 = 0.0554	825.59	813.98	802.32
5000 kPa, x2 = 0.1017	815.8	804.42	793.03
5000 kPa, x2 = 0.2004	796.16	785.28	774.28
5000 kPa, x2 = 0.3016	777.4	767.03	756.52
5000 kPa, x2 = 0.4097	759.02	749.04	738.91
5000 kPa, x2 = 0.498	745.08	735.25	725.49
5000 kPa, x2 = 0.5983	730.47	720.98	711.44
5000 kPa, x2 = 0.7017	716.37	707.1	697.95
5000 kPa, x2 = 0.7995	703.86	695.02	686.17
5000 kPa, x2 = 0.9032	691.56	682.92	674.4
5000 kPa, x2 = 0.9482	686.48	677.95	669.52
7000 kPa, x2 = 0.0554	828.15	816.75	805.4
7000 kPa, x2 = 0.1017	818.38	807.19	796.06
7000 kPa, x2 = 0.2004	798.56	787.92	777.25
7000 kPa, x2 = 0.3016	779.88	769.57	759.21
7000 kPa, x2 = 0.4097	761.39	751.4	741.54
7000 kPa, x2 = 0.498	747.28	737.68	728.22
7000 kPa, x2 = 0.5983	732.58	723.34	714.07
7000 kPa, x2 = 0.7017	718.4	709.4	700.51
7000 kPa, x2 = 0.7995	705.86	697.26	688.53
7000 kPa, x2 = 0.9032	693.5	685.15	676.71
7000 kPa, x2 = 0.9482	688.38	680.11	671.83
10000 kPa, x2 = 0.0554	832	820.74	809.88
10000 kPa, x2 = 0.1017	822.04	811.13	800.36
10000 kPa, x2 = 0.2004	802.32	791.72	781.49
10000 kPa, x2 = 0.3016	783.29	773.41	763.36
10000 kPa, x2 = 0.4097	764.7	754.97	745.37
10000 kPa, x2 = 0.498	750.6	741.18	731.85
10000 kPa, x2 = 0.5983	735.66	726.57	717.55
10000 kPa, x2 = 0.7017	721.43	712.75	703.96
10000 kPa, x2 = 0.7995	708.91	700.32	691.76
10000 kPa, x2 = 0.9032	696.4	688.14	679.93
10000 kPa, x2 = 0.9482	691.28	683.1	674.96
20000 kPa, x2 = 0.0554	843.57	833.07	823.12
20000 kPa, x2 = 0.1017	833.51	823.38	813.35
20000 kPa, x2 = 0.2004	813.29	803.53	794.06
20000 kPa, x2 = 0.3016	793.94	784.77	775.49
20000 kPa, x2 = 0.4097	774.96	766.04	757.06
20000 kPa, x2 = 0.498	760.6	751.92	743.41
20000 kPa, x2 = 0.5983	745.27	737.01	728.54
20000 kPa, x2 = 0.7017	730.77	722.7	714.57
20000 kPa, x2 = 0.7995	717.92	709.98	702.11
20000 kPa, x2 = 0.9032	705.2	697.53	689.93
20000 kPa, x2 = 0.9482	699.94	692.28	684.86
30000 kPa, x2 = 0.0554	853.99	844.1	834.6
30000 kPa, x2 = 0.1017	843.73	834.2	824.82
30000 kPa, x2 = 0.2004	823.05	814.01	805.07
30000 kPa, x2 = 0.3016	803.47	794.87	786.11
30000 kPa, x2 = 0.4097	784.21	775.79	767.3
30000 kPa, x2 = 0.498	769.56	761.41	753.1
30000 kPa, x2 = 0.5983	753.98	746.13	738.15
30000 kPa, x2 = 0.7017	739.18	731.52	723.78
30000 kPa, x2 = 0.7995	726.07	718.59	711.07
30000 kPa, x2 = 0.9032	713.06	705.89	698.64
30000 kPa, x2 = 0.9482	707.83	700.51	693.47
40000 kPa, x2 = 0.0554	863.35	854.03	844.99
40000 kPa, x2 = 0.1017	852.88	843.96	835.05
40000 kPa, x2 = 0.2004	832.1	823.46	814.92
40000 kPa, x2 = 0.3016	812.13	804.15	795.67
40000 kPa, x2 = 0.4097	792.62	784.83	776.64
40000 kPa, x2 = 0.498	777.76	770.02	762.18
40000 kPa, x2 = 0.5983	761.89	754.48	746.92
40000 kPa, x2 = 0.7017	746.9	739.67	732.28
40000 kPa, x2 = 0.7995	733.47	726.54	719.25
40000 kPa, x2 = 0.9032	720.32	713.51	706.58
40000 kPa, x2 = 0.9482	714.92	708.05	701.31
50000 kPa, x2 = 0.0554	871.81	862.97	854.39
50000 kPa, x2 = 0.1017	861.28	852.84	844.39
50000 kPa, x2 = 0.2004	840.18	832.15	823.81
50000 kPa, x2 = 0.3016	820.14	812.43	804.37
50000 kPa, x2 = 0.4097	800.42	792.76	785.03
50000 kPa, x2 = 0.498	785.33	777.91	770.31
50000 kPa, x2 = 0.5983	769.3	762.19	754.82
50000 kPa, x2 = 0.7017	753.99	747.09	739.94
50000 kPa, x2 = 0.7995	740.47	733.8	726.85
50000 kPa, x2 = 0.9032	727.09	720.62	713.88
50000 kPa, x2 = 0.9482	721.65	715.12	708.52
60000 kPa, x2 = 0.0554	879.84	871.31	863.07
60000 kPa, x2 = 0.1017	869.24	861.07	852.83
60000 kPa, x2 = 0.2004	847.92	840.18	832.16
60000 kPa, x2 = 0.3016	827.68	820.2	812.47
60000 kPa, x2 = 0.4097	807.57	800.35	792.82
60000 kPa, x2 = 0.498	792.31	785.26	778.02
60000 kPa, x2 = 0.5983	776.11	769.28	762.27
60000 kPa, x2 = 0.7017	760.58	753.92	747.09
60000 kPa, x2 = 0.7995	746.99	740.45	733.8
60000 kPa, x2 = 0.9032	733.41	727.14	720.67
60000 kPa, x2 = 0.9482	727.85	721.6	715.25
65000 kPa, x2 = 0.0554	883.64	875.25	867.24
65000 kPa, x2 = 0.1017	872.96	864.95	856.84
65000 kPa, x2 = 0.2004	851.56	843.84	836.1
65000 kPa, x2 = 0.3016	831.16	823.81	816.3
65000 kPa, x2 = 0.4097	810.96	803.85	796.58
65000 kPa, x2 = 0.498	795.68	788.68	781.6
65000 kPa, x2 = 0.5983	779.38	772.62	765.81
65000 kPa, x2 = 0.7017	763.77	757.22	750.52
65000 kPa, x2 = 0.7995	749.98	743.57	737.12
65000 kPa, x2 = 0.9032	736.38	730.17	723.9
65000 kPa, x2 = 0.9482	730.82	724.57	718.48

— the NIST ThermoML archive (doi:10.1016/j.tca.2015.06.017)
